Assay results taken from ChEMBL document CHEMBL1201862, “PubChem BioAssay data set” (2004).
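Compound exposure: 48 hours, 5 concentrations, 96-well plates. GI50 = concentration required for 50% inhibition of growth.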 Active and inactive are the calls of the source. No stated cut-off is given here; in the data, active = GI50 up to about 1.1 µM and inactive = higher.

Legend:
Assay in all cases: NCI tumour cell line growth inhibition, 48 h
SN12C = tested on: SN12C
MDA-N = tested on: MDA-N
M14 = tested on: M14
HCT-15 = tested on: HCT-15
HCC 2998 = tested on: HCC 2998
SK-MEL-2 = tested on: SK-MEL-2
SK-OV-3 = tested on: SK-OV-3
786-0 = tested on: 786-0
T47D = tested on: T47D
LOX IMVI = tested on: LOX IMVI
Hs-578T = tested on: Hs-578T
OVCAR-4 = tested on: OVCAR-4
SF-539 = tested on: SF-539
SK-MEL-28 = tested on: SK-MEL-28
ACHN = tested on: ACHN
EKVX = tested on: EKVX
SR = tested on: SR
HL-60 = tested on: HL-60
UACC-62 = tested on: UACC-62

Row | SMILES | GI50 (SN12C) | GI50 (MDA-N) | GI50 (M14) | GI50 (HCT-15) [µM] | GI50 (HCC 2998) | GI50 (SK-MEL-2) | GI50 (SK-OV-3) | GI50 (786-0) | GI50 (T47D) | GI50 (LOX IMVI) | GI50 (Hs-578T) | GI50 (OVCAR-4) | GI50 (SF-539) | GI50 (SK-MEL-28) | GI50 (ACHN) | GI50 (EKVX) | GI50 (SR) | GI50 (HL-60) | GI50 (UACC-62)
1 | COC(=O)C1=C(C)C=C(N2CCOCC2)C(C(=O)OC)C1c1ccccc1 (stereo unspecified) | > 10 µM (inactive) | > 10 µM (inactive) | > 10 µM (inactive) | > 10 | > 10 µM (inactive) | > 10 µM (inactive) | > 10 µM (inactive) | > 10 µM (inactive) | > 10 µM (inactive) | > 10 µM (inactive) | > 10 µM (inactive) | > 10 µM (inactive) | > 10 µM (inactive) | > 10 µM (inactive) | > 10 µM (inactive) | > 10 µM (inactive) |  |  | 
2 | O=c1c(O)c(-c2cc(O)c(O)c(O)c2)oc2cc(O)cc(O)c12 [MYRICETIN] |  | 10 µM (inactive) | 32.1 µM (inactive) | 24.8 |  | > 100 µM (inactive) | > 100 µM (inactive) | 20.1 µM (inactive) | > 100 µM (inactive) | 13.6 µM (inactive) | 40.9 µM (inactive) | 16.3 µM (inactive) | > 100 µM (inactive) | > 100 µM (inactive) | 79.8 µM (inactive) |  | 40.7 µM (inactive) | 56.6 µM (inactive) | 39.5 µM (inactive)
3 | NCCCN(CCCCN(CCCN)Cc1ccccc1)Cc1ccccc1 | 16 µM (inactive) | 18.4 µM (inactive) | 41.6 µM (inactive) | > 100 | 10.8 µM (inactive) |  | 62.5 µM (inactive) | 23.1 µM (inactive) | > 100 µM (inactive) | 19.3 µM (inactive) | 13 µM (inactive) | 28.6 µM (inactive) | 27.6 µM (inactive) | > 100 µM (inactive) | 32.4 µM (inactive) | 21.2 µM (inactive) |  | > 100 µM (inactive) | > 100 µM (inactive)
4 | CC(C(O)Cc1ccccc1)N(C)/N=N/c1ccc([N+](=O)[O-])cc1 (stereo unspecified) | 22 µM (inactive) | 19.3 µM (inactive) | 16.8 µM (inactive) | 22.8 | 16.7 µM (inactive) | 16.9 µM (inactive) | 22.3 µM (inactive) | 18.5 µM (inactive) | 23.8 µM (inactive) |  | 24 µM (inactive) | 29.9 µM (inactive) |  | 18 µM (inactive) | 25.6 µM (inactive) | 22.9 µM (inactive) |  | 84.1 µM (inactive) | 18.8 µM (inactive)
5 | CCCC(Sc1nc(N)nc2nc[nH]c12)C(=O)O (stereo unspecified) | > 100 µM (inactive) | 47.5 µM (inactive) | 53.2 µM (inactive) | 91.6 | 34.3 µM (inactive) | > 100 µM (inactive) | 58.3 µM (inactive) | 92.5 µM (inactive) | > 100 µM (inactive) | 34.5 µM (inactive) | > 100 µM (inactive) | > 100 µM (inactive) |  | > 100 µM (inactive) | > 100 µM (inactive) |  |  | > 100 µM (inactive) | 36.6 µM (inactive)
6 | CCC/C(Cl)=N/OC(NC(=O)OCC)(C(F)(F)F)C(F)(F)F | 16.7 µM (inactive) | 20.5 µM (inactive) | 17.9 µM (inactive) | 21.6 |  | > 100 µM (inactive) |  | 17.4 µM (inactive) | 45.4 µM (inactive) | 17.9 µM (inactive) | 34.5 µM (inactive) | 17.6 µM (inactive) | 16.7 µM (inactive) | 26.5 µM (inactive) | 18.3 µM (inactive) | 20.9 µM (inactive) | 23.1 µM (inactive) | 17.4 µM (inactive) | 48.1 µM (inactive)
7 | COc1ccccc1NC(=S)Nc1cc(C)ccn1 | > 100 µM (inactive) | > 100 µM (inactive) | > 100 µM (inactive) | > 100 |  | > 100 µM (inactive) | > 100 µM (inactive) | > 100 µM (inactive) | > 100 µM (inactive) | > 100 µM (inactive) | > 100 µM (inactive) | > 100 µM (inactive) | > 100 µM (inactive) | > 100 µM (inactive) |  | > 100 µM (inactive) | > 100 µM (inactive) | > 100 µM (inactive) | > 100 µM (inactive)
8 | COc1ccccc1NC(=S)N/N=C(/C)c1ccccn1 | 0.178 µM (active) | 0.637 µM (active) | < 0.01 µM (active) | < 0.0318 | 7 µM (inactive) | 7.5 µM (inactive) | < 0.0213 µM (active) | < 0.0123 µM (active) | < 0.01 µM (active) | < 0.01 µM (active) | > 37.5 µM (inactive) | 0.184 µM (active) | 0.371 µM (active) | 1.71 µM (inactive) | < 0.0106 µM (active) | 0.268 µM (active) |  | < 0.01 µM (active) | 0.238 µM (active)
9 | COc1cc2c(cc1OCCCC(=O)Nc1cc(C(=O)NCCCN(C)C)n(C)n1)N=CC1CCCN1C2=O (stereo unspecified) | 7.11 µM (inactive) | 23.3 µM (inactive) | 8.34 µM (inactive) | 8.55 | 11.1 µM (inactive) | 10.8 µM (inactive) | > 42.2 µM (inactive) | 6.46 µM (inactive) | 9.66 µM (inactive) | 7.71 µM (inactive) | 11 µM (inactive) | 6.44 µM (inactive) | 9.04 µM (inactive) | 5.46 µM (inactive) | 6.44 µM (inactive) | > 47.4 µM (inactive) | 0.213 µM (active) |  | 4.24 µM (inactive)
